Ten compounds from patent US8609636B2, “Oxime derivatives as sphingosine 1-phosphate (S1P) receptor modulators” (Allergan, Inc., priority 2010, dated 2013) can be followed below.

A word on the EC50: it is the concentration needed to bring the measured effect to its halfway point.

T1 sequence (P21453 whole entry): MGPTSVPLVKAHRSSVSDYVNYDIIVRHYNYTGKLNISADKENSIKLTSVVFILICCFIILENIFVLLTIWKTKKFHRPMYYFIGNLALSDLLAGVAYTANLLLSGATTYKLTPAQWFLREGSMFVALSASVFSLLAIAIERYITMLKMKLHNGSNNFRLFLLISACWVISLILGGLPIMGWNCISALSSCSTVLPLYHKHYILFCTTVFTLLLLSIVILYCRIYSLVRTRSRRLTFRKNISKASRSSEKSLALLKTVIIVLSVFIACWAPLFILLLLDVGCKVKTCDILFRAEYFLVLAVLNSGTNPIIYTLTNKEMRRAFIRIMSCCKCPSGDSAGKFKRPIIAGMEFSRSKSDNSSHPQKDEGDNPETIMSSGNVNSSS

The test concerns the target T1, human S1P1 receptor (Homo sapiens, UniProt P21453).
T1 construct: expressed in transfected cells; membranes used
The test can be described thus: GTP γ35S binding assay for S1P1 activity. Format: biochemical. To be noted: activity potency, S1P1 receptor from GTP γ35S binding; membranes, test range 0.08 to 5,000 nM. As for the experimental part: Compounds were synthesized and tested for S1P1 activity using the GTP γ^35S binding assay. These compounds may be assessed for their ability to activate or block activation of the human S1P1 receptor in cells stably expressing the S1P1 receptor.
GTP γ^35S binding was measured in the medium containing (mM) HEPES 25, pH 7.4, MgCl2 10, NaCl 100, dithitothreitol 0.5, digitonin 0.003%, 0.2 nM GTP γ^35S, and 5 μg membrane protein in a volume of 150 μl. Test compounds were included in the concentration range from 0.08 to 5,000 nM unless indicated otherwise. Membranes were incubated with 100 μM 5′-adenylylimmidodiphosphate for 30 min, and subsequently with 10 μM GDP for 10 min on ice. Drug solutions and membrane were mixed, and then reactions were initiated by adding GTP γ^35S and continued for 30 min at 25° C. Reaction mixtures were filtered over Whatman GF/B filters under vacuum, and washed three times with 3 mL of ice-cold buffer (HEPES 25, pH7.4, MgCl2 10 and NaCl 100). Filters were dried and mixed with scintillant, and counted for ^35S activity using a β-counter. Agonist-induced GTP γ^35S binding was obtained by subtracting that in the absence of agonist. Binding data were analyzed using a non-linear regression method. In case of antagonist assay, the reaction mixture contained 10 nM S1P in the presence of test antagonist at concentrations ranging from 0.08 to 5000 nM.
A general note: GTPγS resists hydrolysis and so accumulates on activated G proteins.
In turn, `C/C(=N\OCC(Cc1ccc(C)c(C)c1)c1cccc(C)c1)c1ccc(CNCCC(=O)O)cc1` (stereo not shown) [Compound 1, 3-[(4-{(1E)-N-[3-(3,4-dimethylphenyl)-2-(3-methylphenyl)propoxy]ethanimidoyl}benzyl)amino]propanoic acid] displayed an EC50 of 43.2 nM.

In turn, `C/C(=N\OCC(Cc1ccc(C)c(C)c1)c1cccc(C)c1)c1ccc(CNCCCP(=O)(O)O)cc1` (stereo not shown) [Compound 2, {3-[(4-{(1E)-N-[3-(3,4-dimethylphenyl)-2-(3-methylphenyl)propoxy]ethanimidoyl}benzyl)amino]propyl}phosphonic acid] showed an EC50 of 23.4 nM.

`C/C(=N\OCC(Cc1ccc(C)c(C)c1)c1cccc(Cl)c1)c1ccc(CNCCC(=O)O)cc1` (stereo not shown) [Compound 3, 3-[(4-{(1E)-N-[2-(3-chlorophenyl)-3-(3,4-dimethylphenyl)propoxy]ethanimidoyl}benzyl)amino]propanoic acid]: the EC50 came out at 15.6 nM.

As to `C/C(=N\OCC(Cc1ccc(C)c(C)c1)c1cccc(Cl)c1)c1ccc(CNCCCP(=O)(O)O)cc1` (stereo not shown) [Compound 4, {3-[(4-{(1E)-N-[2-(3-chlorophenyl)-3-(3,4-dimethylphenyl)propoxy]ethanimidoyl}benzyl)amino]propyl}phosphonic acid], a half-maximal effect (EC50) was put at 3.51 nM.

Take `C/C(=N\OCc1ccc(CNCCCP(=O)(O)O)cc1)C(Cc1ccc(C)c(C)c1)c1cccc(Cl)c1` (stereo not shown) [Compound 5, [3-({4-[({[(1E)-2-(3-chlorophenyl)-3-(3,4-dimethylphenyl)-1-methylpropylidene]amino}oxy)methyl]benzyl}amino)propyl]phosphonic acid]: the EC50 worked out at 2.2 nM.

In turn, `C/C(=N\OCc1ccc(CNCCCP(=O)(O)O)cc1)C(Cc1ccc(C)c(C)c1)c1cc(F)cc(F)c1` (stereo not shown) [Compound 6, [3-({4-[({[(1E)-2-(3,5-difluorophenyl)-3-(3,4-dimethylphenyl)-1-methylpropylidene]amino}oxy)methyl]benzyl}amino)propyl]phosphonic acid] came in with an EC50 of 0.88 nM.

With `C/C(=N\OCc1ccc(CNCCC(=O)O)cc1)C(Cc1ccc(C)c(C)c1)c1cc(F)cc(F)c1` (stereo not shown) [Compound 7, 3-({4-[({[(1E)-2-(3,5-difluorophenyl)-3-(3,4-dimethylphenyl)-1-methylpropylidene]amino}oxy)methyl]benzyl}amino)propanoic acid], the EC50 is 6.8 nM.

Turning to `C/C(=N\OCc1ccc(CNCCCP(=O)(O)O)cc1)C(Sc1ccc(C)c(C)c1)c1cccc(Cl)c1` (stereo not shown) [Compound 10, {3-[(4-{[({(1E)-2-(3-chlorophenyl)-2-[(3,4-dimethylphenyl)thio]-1-methylethylidene}amino)oxy]methyl}benzyl)amino]propyl}phosphonic acid], the EC50 is 8.34 nM.

The compound `C/C(=N\OCC(Oc1ccc(C)c(C)c1)c1cccc(Cl)c1)c1ccc(CNCCC(=O)O)cc1` (stereo not shown) [Compound 14, 3-[(4-{(1E)-N-[2-(3-chlorophenyl)-2-(3,4-dimethylphenoxy)ethoxy]ethanimidoyl}benzyl)amino]propanoic acid] returned an EC50 of 216 nM.

Turning to `C/C(=N\OCC(Oc1ccc(C)c(C)c1)c1cccc(Cl)c1)c1ccc(CNCCCP(=O)(O)O)cc1` (stereo not shown) [Compound 15, {3-[(4-{(1E)-N-[2-(3-chlorophenyl)-2-(3,4-dimethylphenoxy)ethoxy]ethanimidoyl}benzyl)amino]propyl}phosphonic acid], the 50% effective concentration (EC50) stood at 11.4 nM.
